Assay results taken from patent publication US10428080B2, “TBK/IKK inhibitor compounds and uses thereof” (Merck Patent GmbH, priority 2015, dated 2019).
Counter-ions that a name gives are not always drawn.

Assays:
[1] = system: phosphorylation of the IRF-3 protein in MDA-MB-468 cells; experiment: pIRF3 immunocytochemistry cell based assay; details: Homo sapiens; MDA-MB-468 cells, Poly(I:C) stimulation; read-out: pIRF3 IC50
Summary of the method: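 MDA-MB-468 cells got compounds (10-point, 3-fold from 10 uM) for 1 h at 37 °C, then 10 ug/ml Poly(I:C) for 2 h. Fixed, permeabilized cells were immunostained for pIRF3 with AlexaFluor488 and counterstained with PI. % phosphorylation was read by laser scanning cytometry, and IC50 curves were fitted.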

IKKε = molecular target: T1, IKKε (Homo sapiens, UniProt Q14164); experiment: IKKe Biochemical Assay; details: read-out: IKKε IC50
T1 sequence (Q14164 1-716): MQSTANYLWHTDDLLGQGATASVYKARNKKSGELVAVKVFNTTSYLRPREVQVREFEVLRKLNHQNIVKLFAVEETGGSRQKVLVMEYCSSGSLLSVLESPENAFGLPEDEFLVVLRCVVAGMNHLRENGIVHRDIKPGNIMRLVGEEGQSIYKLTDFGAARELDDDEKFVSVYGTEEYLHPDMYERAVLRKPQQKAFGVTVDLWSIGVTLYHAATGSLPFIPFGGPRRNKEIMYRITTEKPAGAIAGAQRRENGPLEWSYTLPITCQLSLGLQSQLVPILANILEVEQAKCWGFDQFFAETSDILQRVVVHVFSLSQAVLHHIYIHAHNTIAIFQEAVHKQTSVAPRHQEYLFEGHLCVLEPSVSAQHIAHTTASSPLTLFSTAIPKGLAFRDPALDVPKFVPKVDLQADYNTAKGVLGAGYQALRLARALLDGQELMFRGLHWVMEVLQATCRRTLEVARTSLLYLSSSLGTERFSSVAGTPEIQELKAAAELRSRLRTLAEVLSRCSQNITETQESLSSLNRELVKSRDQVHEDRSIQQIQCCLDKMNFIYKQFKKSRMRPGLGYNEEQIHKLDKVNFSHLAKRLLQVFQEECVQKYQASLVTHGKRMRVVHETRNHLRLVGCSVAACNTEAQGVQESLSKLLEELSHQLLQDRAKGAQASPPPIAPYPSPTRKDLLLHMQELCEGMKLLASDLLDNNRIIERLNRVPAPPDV
Summary of the method: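 Recombinant IKKε and substrate were incubated with compound (10-point 1:4 series, top 30 uM final, 1% DMSO) for 90 min at 25° C, then stopped. Substrate-to-product conversion was read by LabChip microfluidic mobility shift; 10 uM staurosporine served as full-inhibition wells.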

TBK1 = molecular target: T2, TBK1 (Homo sapiens, UniProt Q9UHD2); experiment: TBK Biochemical Assay; details: read-out: TBK1 IC50
T2 sequence (Q9UHD2 1-729): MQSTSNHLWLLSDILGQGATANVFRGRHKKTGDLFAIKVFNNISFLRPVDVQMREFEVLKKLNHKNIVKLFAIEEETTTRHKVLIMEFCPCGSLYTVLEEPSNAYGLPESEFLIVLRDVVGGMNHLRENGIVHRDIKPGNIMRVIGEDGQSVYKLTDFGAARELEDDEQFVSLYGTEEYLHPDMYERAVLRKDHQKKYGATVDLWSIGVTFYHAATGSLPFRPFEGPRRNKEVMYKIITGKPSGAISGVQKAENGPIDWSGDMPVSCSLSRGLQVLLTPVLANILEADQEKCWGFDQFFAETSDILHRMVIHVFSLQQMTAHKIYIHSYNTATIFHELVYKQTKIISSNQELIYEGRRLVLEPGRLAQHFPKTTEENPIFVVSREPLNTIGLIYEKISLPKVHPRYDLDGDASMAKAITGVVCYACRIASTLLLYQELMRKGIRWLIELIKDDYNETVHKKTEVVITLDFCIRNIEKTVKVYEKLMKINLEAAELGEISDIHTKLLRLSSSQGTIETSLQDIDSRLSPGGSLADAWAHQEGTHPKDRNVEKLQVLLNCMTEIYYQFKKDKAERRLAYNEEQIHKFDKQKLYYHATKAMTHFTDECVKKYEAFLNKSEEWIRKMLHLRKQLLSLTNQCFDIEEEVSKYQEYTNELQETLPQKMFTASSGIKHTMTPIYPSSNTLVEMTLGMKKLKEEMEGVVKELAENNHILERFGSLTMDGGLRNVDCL
Summary of the method: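 TBK1 enzyme and substrate incubated with compounds (10-point 1:4 dilution, top 30 uM final, 1% DMSO) for 90 min at 25° C, then stopped. Substrate/product peaks read by microfluidic mobility-shift (Caliper LabChip); 10 uM staurosporine as full-inhibition control.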

COc1cc(C(=O)NC(C)(C)CN(C)C)ccc1-c1cc2nccc(-c3ccc(NC4C5COCC54)c(C#N)c3)c2o1 (stereo not drawn) [Compound 502, N-(2-dimethylamino-1,1-dimethyl-ethyl)-4-{7-[3-cyano-4-(3-oxa-bicyclo[3.1.0]hex-6-ylamino)-phenyl]-furo[3,2-b]pyridin-2-yl}-3-methoxy-benzamide]
IC50 [1]: 100 to 1000 nM | IC50 (IKKε): < 100 nM | IC50 (TBK1): < 100 nM

COc1cc(C(=O)N(C)C)ncc1-c1cc2nccc(-c3ccc(OC4CCN(C)CC4(F)F)c(C#N)c3)c2o1 (stereo not drawn) [Compound 419, 5-(7-[3-cyano-4-[(3,3-difluoro-1-methylpiperidin-4-yl)oxy]phenyl]furo[3,2-b]pyridin-2-yl)-4-methoxy-N,N-dimethylpyridine-2-carboxamide]
IC50 [1]: 100 to 1000 nM | IC50 (IKKε): < 100 nM | IC50 (TBK1): < 100 nM

COc1cc(-c2cc3nccc(-c4ccc(NC5CCOCC5)c(C#N)c4)c3o2)cnc1C(=O)N(C)C [Compound 394, 5-(7-[3-cyano-4-[(oxan-4-yl)amino]phenyl]furo[3,2-b]pyridin-2-yl)-3-methoxy-N,N-dimethylpyridine-2-carboxamide]
IC50 [1]: 1000 to 5000 nM | IC50 (IKKε): 100 to 1000 nM | IC50 (TBK1): 100 to 1000 nM

COc1cc(C(=O)N(C)C(C)(C)CO)ccc1-c1cc2nccc(-c3ccc(OC4CCOCC4)c(C#N)c3)c2o1 [Compound 480, 4-{7-[3-Cyano-4-(tetrahydro-pyran-4-yloxy)-phenyl]-furo[3,2-b]pyridin-2-yl}-N-(2-hydroxy-1,1-dimethyl-ethyl)-3-methoxy-N-methyl-benzamide]
IC50 [1]: 100 to 1000 nM | IC50 (IKKε): < 100 nM | IC50 (TBK1): < 100 nM

COc1cc(C(=O)N(C)C)cnc1-c1cc2ncc(F)c(-c3ccc(NC4CCOCC4)c(C#N)n3)c2o1 [Compound 352, 6-(7-[6-cyano-5-[(oxan-4-yl)amino]pyridin-2-yl]-6-fluorofuro[3,2-b]pyridin-2-yl)-5-methoxy-N,N-dimethylpyridine-3-carboxamide]
IC50 [1]: 1000 to 5000 nM | IC50 (IKKε): 1000 to 5000 nM | IC50 (TBK1): 100 to 1000 nM

COc1cc(C(=O)NC2CCNCC2)ccc1-c1cc2nccc(-c3ccc(OC4CCOCC4)c(C#N)c3)c2o1 [Compound 62, 4-{7-[3-Cyano-4-(tetrahydro-pyran-4-yloxy)-phenyl]-furo[3,2-b]pyridin-2-yl}-3-methoxy-N-piperidin-4-yl-benzamide hydrochloride]
IC50 [1]: 100 to 1000 nM | IC50 (IKKε): < 100 nM | IC50 (TBK1): < 100 nM

COc1cc(C(=O)N(C)C)ccc1-c1cc2nccc(-c3ccc(C4(N5CCOCC5)CC4)c(C#N)c3)c2o1 [Compound 292, 4-(7-[3-cyano-4-[1-(morpholin-4-yl)cyclopropyl]phenyl]furo[3,2-b]pyridin-2-yl)-3-methoxy-N,N-dimethylbenzamide hydrochloride]
IC50 [1]: 100 to 1000 nM | IC50 (IKKε): 100 to 1000 nM | IC50 (TBK1): 100 to 1000 nM

COc1cc(-c2n[nH]c(=O)o2)ccc1-c1cc2nccc(-c3ccc(OC4CCOCC4)c(C#N)c3)c2o1 [Compound 50, 5-{2-[2-Methoxy-4-(5-oxo-4,5-dihydro-[1,3,4]oxadiazol-2-yl)-phenyl]-furo[3,2-b]pyridin-7-yl}-2-(tetrahydro-pyran-4-yloxy)-benzonitrile]
IC50 [1]: 100 to 1000 nM | IC50 (IKKε): < 100 nM | IC50 (TBK1): < 100 nM

COc1cc(C(=O)N(C)C)ccc1-c1cc2nccc(-c3ccc(OC4CCN(C(C)=O)CC4)c(C#N)c3)c2o1 [Compound 112, 4-{7-[4-(1-Acetyl-piperidin-4-yloxy)-3-cyano-phenyl]-furo[3,2-b]pyridin-2-yl}-3-methoxy-N,N-dimethyl-benzamide]
IC50 [1]: 100 to 1000 nM | IC50 (IKKε): < 100 nM | IC50 (TBK1): < 100 nM

COc1cc(C(=O)NCC(C)(C)N(C)C)ccc1-c1cc2nccc(-c3ccc(NC4CCOCC4)c(C#N)c3)c2o1 [Compound 499, 4-{7-[3-Cyano-4-(tetrahydro-pyran-4-ylamino)-phenyl]-furo[3,2-b]pyridin-2-yl}-N-(2-dimethylamino-2-methyl-propyl)-3-methoxy-benzamide]
IC50 [1]: 100 to 1000 nM | IC50 (IKKε): < 100 nM | IC50 (TBK1): < 100 nM

COc1cc(C(=O)N2CC[C@@H](N(C)C)C2)ncc1-c1cc2nccc(-c3ccc(N4CCC(F)C4)c(C#N)c3)c2o1 (stereo partly drawn) [Compound 457, 5-[2-(6-[[(3R)-3-(dimethylamino)pyrrolidin-1-yl]carbonyl]-4-methoxypyridin-3-yl)furo[3,2-b]pyridin-7-yl]-2-(3-fluoropyrrolidin-1-yl)benzonitrile]
IC50 [1]: < 100 nM | IC50 (IKKε): < 100 nM | IC50 (TBK1): < 100 nM

COc1cc(C(=O)N2C3CCCC2CC3)ccc1-c1cc2nccc(-c3ccc(OC4CCOCC4)c(C#N)c3)c2o1 [Compound 509]
IC50 [1]: 100 to 1000 nM | IC50 (IKKε): < 100 nM | IC50 (TBK1): < 100 nM

COc1cc(C(=O)N(C)CCO)ccc1-c1cc2ncc(F)c(-c3ccc(NC4CCOCC4)c(C#N)c3)c2o1 [Compound 296, 4-(7-[3-cyano-4-[(oxan-4-yl)amino]phenyl]-6-fluorofuro[3,2-b]pyridin-2-yl)-N-(2-hydroxyethyl)-3-methoxy-N-methylbenzamide]
IC50 [1]: 100 to 1000 nM | IC50 (IKKε): < 100 nM | IC50 (TBK1): < 100 nM

COc1cc(C(=O)N2CC(O)C2)ccc1-c1cc2nccc(-c3ccc(N4CC[C@@H](F)C4)c(C#N)c3)c2o1 [Compound 497, 2-((R)-3-Fluoro-pyrrolidin-1-yl)-5-{2-[4-(3-hydroxy-azetidine-1-carbonyl)-2-methoxy-phenyl]-furo[3,2-b]pyridin-7-yl}-benzonitrile]
IC50 [1]: 100 to 1000 nM | IC50 (IKKε): < 100 nM | IC50 (TBK1): < 100 nM

COc1cc(C(=O)N2CC[C@@H](N(C)C)C2)cnc1-c1cc2nccc(-c3ccc(N4CCC(F)C4)c(C#N)c3)c2o1 (stereo partly drawn) [Compound 454, 5-[2-(5-[[(3R)-3-(dimethylamino)pyrrolidin-1-yl]carbonyl]-3-methoxypyridin-2-yl)furo[3,2-b]pyridin-7-yl]-2-(3-fluoropyrrolidin-1-yl)benzonitrile]
IC50 [1]: 100 to 1000 nM | IC50 (IKKε): < 100 nM | IC50 (TBK1): < 100 nM

COc1cc(C(=O)N2CC3C2CCN3C)ccc1-c1cc2nccc(-c3ccc(OC4CCOCC4)c(C#N)c3)c2o1 (stereo not drawn) [Compound 474, 5-{2-[2-Methoxy-4-(2-methyl-2,6-diaza-bicyclo[3.2.0]heptane-6-carbonyl)-phenyl]-furo[3,2-b]pyridin-7-yl}-2-(tetrahydro-pyran-4-yloxy)-benzonitrile]
IC50 [1]: < 100 nM | IC50 (IKKε): < 100 nM | IC50 (TBK1): < 100 nM

COc1cc(C(=O)N2CCC(CO)CC2)ccc1-c1cc2nccc(-c3ccc(OC4CCOCC4)c(C#N)c3)c2o1 [Compound 5, 5-{2-[4-(4-Hydroxymethyl-piperidine-1-carbonyl)-2-methoxy-phenyl]-furo[3,2-b]pyridin-7-yl}-2-(tetrahydro-pyran-4-yloxy)-benzonitrile]
IC50 [1]: < 100 nM | IC50 (IKKε): < 100 nM | IC50 (TBK1): < 100 nM

CN(C)C(=O)c1ccc(-c2cc3nccc(-c4ccc(OC5(C)CCOCC5)c(C#N)c4)c3o2)cc1 [Compound 159, 4-{7-[3-Cyano-4-(4-methyl-tetrahydro-pyran-4-yloxy)-phenyl]-furo[3,2-b]pyridin-2-yl}-N,N-dimethyl-benzamide]
IC50 [1]: > 5000 nM | IC50 (IKKε): 100 to 1000 nM | IC50 (TBK1): 100 to 1000 nM
